Measured values as given in ChEMBL document CHEMBL1146736, “Simple aromatic compounds containing propenone moiety show considerable dual COX/5-LOX inhibitory activities” (Bioorg Med Chem Lett, 2004).

Tests used:
[1] = biological target: T1, Prostaglandin G/H synthase 1 (Mus musculus, UniProt P22437); assay: Inhibitory activity against murine prostaglandin G/H synthase 1.
T1 sequence (P22437 whole entry): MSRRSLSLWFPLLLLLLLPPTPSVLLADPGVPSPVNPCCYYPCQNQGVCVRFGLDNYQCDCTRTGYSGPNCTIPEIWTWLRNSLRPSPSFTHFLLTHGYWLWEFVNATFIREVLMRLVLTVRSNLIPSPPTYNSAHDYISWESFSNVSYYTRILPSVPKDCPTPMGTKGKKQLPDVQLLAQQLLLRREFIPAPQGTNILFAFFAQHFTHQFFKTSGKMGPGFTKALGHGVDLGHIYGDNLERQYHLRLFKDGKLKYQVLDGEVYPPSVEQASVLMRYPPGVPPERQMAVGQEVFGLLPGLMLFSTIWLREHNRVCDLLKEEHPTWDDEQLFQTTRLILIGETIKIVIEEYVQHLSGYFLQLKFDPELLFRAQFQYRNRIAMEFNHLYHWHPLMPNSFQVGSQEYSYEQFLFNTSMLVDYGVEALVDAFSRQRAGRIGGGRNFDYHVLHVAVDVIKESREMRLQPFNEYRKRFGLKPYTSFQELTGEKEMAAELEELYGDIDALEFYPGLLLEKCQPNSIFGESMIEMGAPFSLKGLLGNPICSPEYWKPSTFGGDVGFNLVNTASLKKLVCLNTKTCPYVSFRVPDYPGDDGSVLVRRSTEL

[2] = biological target: T2, Polyunsaturated fatty acid 5-lipoxygenase (Mus musculus, UniProt P48999); assay: Inhibitory activity against murine […].
T2 sequence (P48999 whole entry): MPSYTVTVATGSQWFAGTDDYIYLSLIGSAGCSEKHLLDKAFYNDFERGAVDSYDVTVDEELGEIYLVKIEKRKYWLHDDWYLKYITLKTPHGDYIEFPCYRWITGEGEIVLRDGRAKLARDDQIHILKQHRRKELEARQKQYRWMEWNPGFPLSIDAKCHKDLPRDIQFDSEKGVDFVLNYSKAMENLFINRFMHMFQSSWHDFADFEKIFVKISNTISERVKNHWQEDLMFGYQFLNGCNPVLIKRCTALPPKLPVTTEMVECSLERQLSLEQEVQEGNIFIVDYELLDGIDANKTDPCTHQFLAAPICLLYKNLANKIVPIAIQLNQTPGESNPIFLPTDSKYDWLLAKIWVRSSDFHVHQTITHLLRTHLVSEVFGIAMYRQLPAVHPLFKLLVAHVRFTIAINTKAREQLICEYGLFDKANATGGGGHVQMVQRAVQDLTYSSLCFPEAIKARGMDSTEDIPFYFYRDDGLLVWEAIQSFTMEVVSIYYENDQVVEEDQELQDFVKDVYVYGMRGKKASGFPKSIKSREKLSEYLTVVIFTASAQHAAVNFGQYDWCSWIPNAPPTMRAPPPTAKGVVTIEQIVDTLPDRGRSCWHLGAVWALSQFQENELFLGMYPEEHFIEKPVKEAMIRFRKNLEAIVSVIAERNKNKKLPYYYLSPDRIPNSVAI

[3] = biological target: T3, Prostaglandin G/H synthase 2 (Mus musculus, UniProt Q05769); assay: Inhibitory activity against murine Prostaglandin G/H synthase 2.
T3 sequence (Q05769 whole entry): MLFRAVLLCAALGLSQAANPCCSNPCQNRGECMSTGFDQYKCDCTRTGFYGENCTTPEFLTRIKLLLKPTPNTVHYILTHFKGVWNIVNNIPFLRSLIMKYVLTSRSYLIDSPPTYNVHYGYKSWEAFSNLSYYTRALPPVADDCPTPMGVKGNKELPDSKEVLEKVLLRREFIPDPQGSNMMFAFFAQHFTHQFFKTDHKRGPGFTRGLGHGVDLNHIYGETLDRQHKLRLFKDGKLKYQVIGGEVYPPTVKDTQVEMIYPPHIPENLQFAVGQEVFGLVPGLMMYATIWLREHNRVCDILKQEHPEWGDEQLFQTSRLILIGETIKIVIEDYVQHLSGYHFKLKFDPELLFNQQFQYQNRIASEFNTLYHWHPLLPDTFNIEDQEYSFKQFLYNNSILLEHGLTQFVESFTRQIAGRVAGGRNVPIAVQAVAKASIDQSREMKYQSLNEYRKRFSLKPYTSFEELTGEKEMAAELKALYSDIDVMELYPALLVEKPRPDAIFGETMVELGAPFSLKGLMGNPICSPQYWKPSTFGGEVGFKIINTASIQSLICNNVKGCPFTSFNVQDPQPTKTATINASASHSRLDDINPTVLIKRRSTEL

[4] = biological target: T1, Prostaglandin G/H synthase 1; assay: Inhibitory activity against Prostaglandin G/H synthase 1 in mice
[5] = biological target: T2, Polyunsaturated fatty acid 5-lipoxygenase; assay: Inhibitory activity against […] in mice
[6] = biological target: T3, Prostaglandin G/H synthase 2; assay: Inhibitory activity against cyclooxygenase-2 in micc

IC50 [1] [µM]	IC50 [2] [µM]	IC50 [3] [µM]	IC50 [4] [µM]	IC50 [5] [µM]	IC50 [6] [µM]	Structure (SMILES)
32.5	8.13	28.7				O=C(/C=C/c1ccccc1)c1ccccn1
	12	12	59.7			O=C(/C=C/c1ccco1)c1cccnc1
59.9	5.9	26.7				O=C(/C=C/c1ccsc1)c1cccs1
80.7	12.8	29				O=C(/C=C/c1ccco1)c1ccco1
46.2	9.5	9.02				O=C(/C=C/c1cccs1)c1ccccc1
21	13.4	7.92				O=C(/C=C/c1ccoc1)c1cccnc1
23.6	13.5	7.44				O=C(/C=C/c1ccco1)c1ccccn1
13		18.4		10		O=C(/C=C/c1ccsc1)c1cccnc1
23.6	13.8				12	O=C(/C=C/c1ccoc1)c1ccccn1
65.3	0.37	1.89				O=C(/C=C/c1ccccn1)c1ccco1
40.1	6.51	23.4				Cc1ccsc1/C=C/C(=O)c1ccccn1
57.4	7.52	14.1				O=C(/C=C/c1ccco1)c1ccc(Cl)s1
13	7.6	5.22				O=C(/C=C/c1ccsc1)c1ccccn1
60.7	14	13.7				O=C(/C=C/c1ccco1)c1cccs1
9.01	4.8	3.4				O=C(/C=C/c1cccs1)c1cccs1
22.1	12.2	11.2				O=C(/C=C/c1ccccc1)c1ccccc1 [CHALCONE]
	0.032					CC1=C(C)C(=O)C(CCCCC#CCCCC#CCO)=C(C)C1=O [DOCEBENONE]
1.67						CS(=O)(=O)Nc1ccc([N+](=O)[O-])cc1OC1CCCCC1 [NS-398]
